Results published in patent publication US20070128217A1 (priority 2003, published 2007).

How the values were obtained:
[1] = system: antibodies in sera from SARS patients (sera 1a, 1b, 2, 6, 37, 62, London, SARS-yellow, SARS-green); format: binding, human; design: Binding of serum 6 to linear peptides of protein X1 of SARS-CoV Urbani / Binding of serum 37 to linear peptides of protein X1 of SARS-CoV Urbani / Binding of serum 6 to looped/cyclic peptide (PEPSCAN-ELISA) / Binding of serum 37 to looped/cyclic peptide (PEPSCAN-ELISA) / Binding of serum 37 to looped/cyclic peptides of protein X1 of SARS-CoV Urbani / Binding of serum 6 to linear peptides of protein X2 / Binding of serum 37 to linear peptides of protein X2 / Binding of serum 37 to looped/cyclic peptides of protein X2 of SARS-CoV Urbani / Binding of serum 6 to linear peptides of protein M of SARS-CoV Urbani / Binding of serum 37 to linear peptides of protein M of SARS-CoV Urbani / Binding of serum 6 to looped/cyclic peptides of protein M of SARS-CoV Urbani / Binding of serum 37 to looped/cyclic peptides of protein M of SARS-CoV Urbani / Binding of serum 6 to linear peptides of protein X3 of SARS-CoV Urbani / Binding of serum 37 to linear peptides of protein X3 of SARS-CoV Urbani / Binding of serum 37 to looped/cyclic peptides of protein X3 of SARS-CoV Urbani / Binding of serum 6 to linear peptides of protein X4 of SARS-CoV Urbani / Binding of serum 37 to linear peptides of protein X4 of SARS-CoV Urbani / Binding of serum 37 to looped/cyclic peptides of protein X4 of SARS-CoV Urbani / Binding of serum 6 to linear peptides of protein X5 of SARS-CoV Urbani / Binding of serum 37 to linear peptides of protein X5 of SARS-CoV Urbani / Binding of serum 37 to looped/cyclic peptides of protein X5 of SARS-CoV Urbani / Binding of serum 6 to linear peptides of protein N of SARS-CoV Urbani / Binding of serum 37 to linear peptides of protein N of SARS-CoV Urbani / Binding of serum 6 to linear peptide (PEPSCAN-ELISA) / Binding of serum 1a to looped/cyclic peptides of protein N of SARS-CoV Urbani / Binding of serum 1b to looped/cyclic peptides of protein N of SARS-CoV Urbani / Binding of serum 2 to looped/cyclic peptides of protein N of SARS-CoV Urbani / Binding of serum 6 to looped/cyclic peptides of protein N of SARS-CoV Urbani / Binding of serum 37 to looped/cyclic peptides of protein N of SARS-CoV Urbani / Binding of serum 62 to looped/cyclic peptides of protein N of SARS-CoV Urbani / Binding of serum London to looped/cyclic peptides of protein N of SARS-CoV Urbani / Binding of serum SARS-green to looped/cyclic peptides of protein N of SARS-CoV Urbani: unit not given here
[2] = system: rabbit serum obtained by immunizing a rabbit with the SARS-CoV strain Frankfurt 1; format: binding; design: Binding of a rabbit serum to linear peptides / Binding of a rabbit serum to looped peptides / Rabbit serum linear peptides / Rabbit serum looped peptides / Binding of a rabbit serum to linear peptides of protein N of SARS-CoV Urbani (Rabbit serum linear peptides) / Binding of a rabbit serum to looped/cyclic peptides of protein N of SARS-CoV Urbani (Rabbit serum looped peptides): unit not given here
[3] = system: control sera (pooled serum of ten healthy LUMC hospital workers; commercial negative donor pooled serum from the Dutch bloodbank); format: binding, human; design: Binding of Control serum LUMC to linear peptides / Binding of Control serum Blood-bank to linear peptides / Binding of Control serum LUMC to looped peptides / Binding of Control Serum Blood-Bank to Looped peptides / Binding of Control serum LUMC to linear peptides of the protein M of SARS-CoV Urbani / Binding of Control serum Blood-bank to linear peptides of the protein M of SARS-CoV Urbani / Binding of Control serum LUMC to looped peptides of the protein M of SARS-CoV Urbani / Binding of Control Serum Blood-Bank to Looped peptides of the protein M of SARS-CoV Urbani: unit not given here
[4] = system: recombinant human anti-SARS-CoV antibody 03-018; format: binding; design: Binding of antibody 03-018 to linear peptides of the N protein of SARS-CoV Urbani / Binding of antibody 03-018 to looped/cyclic peptides of the N protein of SARS-CoV Urbani: unit not given here

Sequence | Binding of serum 1a to linear peptides of protein N of SARS-CoV Urbani [1] | Binding of serum 1a to looped/cyclic peptides of protein N of SARS-CoV Urbani [1] | Binding of serum 1b to linear peptides of protein N of SARS-CoV Urbani [1] | Binding of serum 1b to looped/cyclic peptides of protein N of SARS-CoV Urbani [1] | Binding of serum 2 to linear peptides of protein N of SARS-CoV Urbani [1] | Binding of serum 2 to looped/cyclic peptides of protein N of SARS-CoV Urbani [1] | Binding of serum 6 to linear peptides of protein N of SARS-CoV Urbani [1] | Binding of serum 6 to looped/cyclic peptides of protein N of SARS-CoV Urbani [1] | Binding of serum 37 to linear peptides of protein N of SARS-CoV Urbani [1] | Binding of serum 37 to looped/cyclic peptides of protein N of SARS-CoV Urbani [1] | Binding of serum 62 to linear peptides of protein N of SARS-CoV Urbani [1] | Binding of serum 62 to looped/cyclic peptides of protein N of SARS-CoV Urbani [1] | Binding of serum London to linear peptides of protein N of SARS-CoV Urbani [1] | Binding of serum London to looped/cyclic peptides of protein N of SARS-CoV Urbani [1] | Binding of serum SARS-green to looped/cyclic peptides of protein N of SARS-CoV Urbani [1] | Binding of serum SARS-yellow to looped/cyclic peptides of protein N of SARS-CoV Urbani [1] | Binding of a rabbit serum to linear peptides of protein N of SARS-CoV Urbani (Rabbit serum linear peptides) [2] | Binding of a rabbit serum to looped/cyclic peptides of protein N of SARS-CoV Urbani (Rabbit serum looped peptides) [2] | Binding of antibody 03-018 to linear peptides of the N protein of SARS-CoV Urbani [4] | Binding of antibody 03-018 to looped/cyclic peptides of the N protein of SARS-CoV Urbani [4] | further results
MSRIGMEVTPSGTWL | 0.3 | 0.4 | 0.1 | 0.3 | 0.2 | 0.5 | 0.2 | 0.3 | 0.6 | 0.6 | 0.7 | 0.7 | 0.5 | 0.5 | 0.7 | 0.5 | 0.2 | 0.5 | 0.1 | 0.2 | Binding of serum SARS-green to linear peptides of protein N of SARS-CoV Urbani [1]: 0.3; Binding of serum SARS-yellow to linear peptides of protein N of SARS-CoV Urbani [1]: 0.6; Control Serum Blood-Bank Looped peptides [3]: 0.7; Control serum Blood-bank linear peptides [3]: 0.8; Control serum LUMC linear peptides [3]: 0.7; Control serum LUMC looped peptides [3]: 0.7
NFGDQDLIRQGTDYK |  | 0.2 |  | 0.1 |  | 0.2 |  | 0.1 |  | 0.4 |  | 0.3 |  | 0.3 | 0.2 | 0.1 | 0.1 | 0.1 | 0.1 | 0.2 | Binding of serum 1a to linear peptide (PEPSCAN-ELISA) [1]: 0.3; Binding of serum 1b to linear peptide (PEPSCAN-ELISA) [1]: 0.2; Binding of serum 2 to linear peptide (PEPSCAN-ELISA) [1]: 0.2; Binding of serum 6 to linear peptide (PEPSCAN-ELISA) [1]: 0.2; Binding of serum 37 to linear peptide (PEPSCAN-ELISA) [1]: 0.7; Binding of serum 62 to linear peptide (PEPSCAN-ELISA) [1]: 0.7; Binding of serum London to linear peptide (PEPSCAN-ELISA) [1]: 0.6; Binding of serum SARS-green to linear peptide (PEPSCAN-ELISA) [1]: 0.8; Binding of serum SARS-yellow to linear peptide (PEPSCAN-ELISA) [1]: 0.6; Binding of Control Serum Blood-Bank to Looped peptides [3]: 0.5; Binding of Control serum Blood-bank to linear peptides [3]: 0.8; Binding of Control serum LUMC to linear peptides [3]: 0.7; Binding of Control serum LUMC to looped peptides [3]: 0.4
NGARPKQRRPQGLPN | 0.2 | 0.3 | 0.1 | 0.2 | 0.2 | 0.3 | 0.1 | 0.4 | 0.7 | 0.6 | 0.5 | 0.5 | 0.4 | 0.5 | 0.4 | 0.4 | 0.1 | 0.3 | 0.1 | 0.3 | Binding of serum SARS-green to linear peptides of protein N of SARS-CoV Urbani [1]: 0.3; Binding of serum SARS-yellow to linear peptides of protein N of SARS-CoV Urbani [1]: 0.5; Binding of Control Serum Blood-Bank to Looped peptides [3]: 0.6; Binding of Control serum Blood-bank to linear peptides [3]: 0.7; Binding of Control serum LUMC to linear peptides [3]: 0.6; Binding of Control serum LUMC to looped peptides [3]: 0.6
NGGRNGARPKQRRPQ | 0.2 | 0.3 | 0.1 | 0.2 | 0.2 | 0.3 | 0.2 | 0.3 | 0.7 | 0.6 | 0.7 | 0.5 | 0.5 | 0.3 | 0.4 | 0.5 | 0.1 | 1.1 | 0.2 | 0.3 | Binding of serum SARS-green to linear peptides of protein N of SARS-CoV Urbani [1]: 0.5; Binding of serum SARS-yellow to linear peptides of protein N of SARS-CoV Urbani [1]: 0.5; Binding of Control Serum Blood-Bank to Looped peptides [3]: 0.7; Binding of Control serum Blood-bank to linear peptides [3]: 0.6; Binding of Control serum LUMC to linear peptides [3]: 0.6; Binding of Control serum LUMC to looped peptides [3]: 0.7
